Among the data in ChEMBL document CHEMBL5442219 are inhibition values, retold here.

What all share (conditions): Compound concentration 10 µM
Test [1] deals with T1, Muscarinic acetylcholine receptor M5 (Homo sapiens) (UniProt P08912).
T1 sequence (whole entry): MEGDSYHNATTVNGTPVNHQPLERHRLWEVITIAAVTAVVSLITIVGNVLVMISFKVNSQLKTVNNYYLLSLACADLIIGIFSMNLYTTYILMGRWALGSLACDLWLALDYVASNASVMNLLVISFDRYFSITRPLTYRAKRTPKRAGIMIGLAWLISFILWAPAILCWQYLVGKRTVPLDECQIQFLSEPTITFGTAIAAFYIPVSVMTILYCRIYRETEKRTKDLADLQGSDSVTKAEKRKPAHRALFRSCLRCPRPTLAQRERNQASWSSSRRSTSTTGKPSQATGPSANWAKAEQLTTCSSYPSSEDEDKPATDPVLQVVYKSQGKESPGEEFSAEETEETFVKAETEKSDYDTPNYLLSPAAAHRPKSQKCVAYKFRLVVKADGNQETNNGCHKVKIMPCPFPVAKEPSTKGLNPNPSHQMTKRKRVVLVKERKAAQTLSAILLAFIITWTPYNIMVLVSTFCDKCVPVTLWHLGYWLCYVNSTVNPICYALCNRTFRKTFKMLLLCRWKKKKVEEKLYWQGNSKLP
Description: PDSP Primary Binding target: CHRM5 - Compounds are tested at 10 uM concentration, plate are incubated at room temperature in the dark for 90 minutes. Reaction are stopped by vacuum filtration onto 0.3% polyethyleneimine soaked filter mats using Filtermate harvester. Scintilation cocktail is then melted onto microwave-dried filters on a hot plate and the radio activity is counted in Microbia counter.

The target in test [2] is T2, 5-hydroxytryptamine receptor 2C (Homo sapiens) (UniProt P28335).
T2 sequence (whole entry): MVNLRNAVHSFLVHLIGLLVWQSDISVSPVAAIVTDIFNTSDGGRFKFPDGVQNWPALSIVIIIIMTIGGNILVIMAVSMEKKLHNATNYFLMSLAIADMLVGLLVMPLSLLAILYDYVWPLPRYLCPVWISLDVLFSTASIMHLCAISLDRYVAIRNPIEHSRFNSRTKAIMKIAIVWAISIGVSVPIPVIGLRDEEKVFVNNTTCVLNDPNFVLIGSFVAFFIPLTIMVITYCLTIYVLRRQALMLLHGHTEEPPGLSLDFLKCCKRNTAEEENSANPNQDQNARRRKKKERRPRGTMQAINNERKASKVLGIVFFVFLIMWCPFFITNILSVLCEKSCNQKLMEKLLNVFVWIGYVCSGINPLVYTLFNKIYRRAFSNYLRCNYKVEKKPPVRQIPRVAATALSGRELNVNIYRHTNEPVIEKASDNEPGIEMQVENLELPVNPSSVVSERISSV
Description: PDSP Primary Binding target: HTR2C - Compounds are tested at 10 uM concentration, plate are incubated at room temperature in the dark for 90 minutes. Reaction are stopped by vacuum filtration onto 0.3% polyethyleneimine soaked filter mats using Filtermate harvester. Scintilation cocktail is then melted onto microwave-dried filters on a hot plate and the radio activity is counted in Microbia counter.

Test [3] deals with T3, Alpha-1A adrenergic receptor (Homo sapiens) (UniProt P35348).
T3 sequence (whole entry): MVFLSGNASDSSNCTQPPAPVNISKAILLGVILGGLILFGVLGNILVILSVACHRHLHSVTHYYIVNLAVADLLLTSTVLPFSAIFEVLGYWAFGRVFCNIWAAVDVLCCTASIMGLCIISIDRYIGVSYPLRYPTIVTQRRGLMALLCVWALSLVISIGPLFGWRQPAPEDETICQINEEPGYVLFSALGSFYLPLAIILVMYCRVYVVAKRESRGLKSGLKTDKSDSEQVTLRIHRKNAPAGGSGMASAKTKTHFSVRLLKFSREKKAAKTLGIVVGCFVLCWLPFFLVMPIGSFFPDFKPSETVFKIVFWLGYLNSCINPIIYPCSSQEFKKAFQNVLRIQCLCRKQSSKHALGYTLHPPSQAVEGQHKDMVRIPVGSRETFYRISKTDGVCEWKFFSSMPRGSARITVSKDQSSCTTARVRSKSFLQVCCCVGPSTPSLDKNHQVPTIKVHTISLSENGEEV
Description: PDSP Primary Binding target: ADRA1A - Compounds are tested at 10 uM concentration, plate are incubated at room temperature in the dark for 90 minutes. Reaction are stopped by vacuum filtration onto 0.3% polyethyleneimine soaked filter mats using Filtermate harvester. Scintilation cocktail is then melted onto microwave-dried filters on a hot plate and the radio activity is counted in Microbia counter.

Test [4] has as its target 5-hydroxytryptamine receptor 1E (Homo sapiens) (UniProt P28566).
Description: PDSP Primary Binding target: HTR1E - Compounds are tested at 10 uM concentration, plate are incubated at room temperature in the dark for 90 minutes. Reaction are stopped by vacuum filtration onto 0.3% polyethyleneimine soaked filter mats using Filtermate harvester. Scintilation cocktail is then melted onto microwave-dried filters on a hot plate and the radio activity is counted in Microbia counter.
Test [5] deals with Sodium-dependent serotonin transporter (Homo sapiens) (UniProt P31645).
Chain of Sodium-dependent serotonin transporter (Homo sapiens) (P31645 whole entry, looked up): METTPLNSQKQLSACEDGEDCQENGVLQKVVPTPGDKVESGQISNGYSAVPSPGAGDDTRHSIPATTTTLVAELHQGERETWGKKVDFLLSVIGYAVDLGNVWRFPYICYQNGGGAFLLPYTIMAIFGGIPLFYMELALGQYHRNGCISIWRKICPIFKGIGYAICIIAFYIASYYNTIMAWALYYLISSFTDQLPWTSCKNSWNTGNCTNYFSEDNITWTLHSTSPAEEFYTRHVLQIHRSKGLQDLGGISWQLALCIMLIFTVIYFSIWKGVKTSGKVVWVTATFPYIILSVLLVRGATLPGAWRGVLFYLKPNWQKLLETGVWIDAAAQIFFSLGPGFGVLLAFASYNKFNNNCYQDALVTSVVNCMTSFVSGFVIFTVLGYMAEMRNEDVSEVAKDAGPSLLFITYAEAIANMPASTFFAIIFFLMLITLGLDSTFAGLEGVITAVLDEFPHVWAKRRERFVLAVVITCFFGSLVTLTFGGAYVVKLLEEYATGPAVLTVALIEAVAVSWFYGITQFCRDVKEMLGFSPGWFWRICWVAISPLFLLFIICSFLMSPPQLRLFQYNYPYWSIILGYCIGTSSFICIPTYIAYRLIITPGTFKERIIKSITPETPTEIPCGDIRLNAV
Description: PDSP Primary Binding target: SLC6A4 - Compounds are tested at 10 uM concentration, plate are incubated at room temperature in the dark for 90 minutes. Reaction are stopped by vacuum filtration onto 0.3% polyethyleneimine soaked filter mats using Filtermate harvester. Scintilation cocktail is then melted onto microwave-dried filters on a hot plate and the radio activity is counted in Microbia counter.
For test [6], the target named is Sigma intracellular receptor 2 (Homo sapiens) (UniProt Q5BJF2).
Chain of Sigma intracellular receptor 2 (Homo sapiens) (Q5BJF2 whole entry): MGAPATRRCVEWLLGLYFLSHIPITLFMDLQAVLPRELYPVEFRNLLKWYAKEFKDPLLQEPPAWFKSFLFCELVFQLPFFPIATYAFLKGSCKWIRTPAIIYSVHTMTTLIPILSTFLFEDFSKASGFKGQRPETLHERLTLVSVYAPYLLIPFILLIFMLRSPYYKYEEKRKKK
Description: PDSP Primary Binding target: TMEM97 - Compounds are tested at 10 uM concentration, plate are incubated at room temperature in the dark for 90 minutes. Reaction are stopped by vacuum filtration onto 0.3% polyethyleneimine soaked filter mats using Filtermate harvester. Scintilation cocktail is then melted onto microwave-dried filters on a hot plate and the radio activity is counted in Microbia counter.
For test [7], the target named is 5-hydroxytryptamine receptor 6 (Homo sapiens) (UniProt P50406).
Chain of 5-hydroxytryptamine receptor 6 (Homo sapiens) (P50406 whole entry): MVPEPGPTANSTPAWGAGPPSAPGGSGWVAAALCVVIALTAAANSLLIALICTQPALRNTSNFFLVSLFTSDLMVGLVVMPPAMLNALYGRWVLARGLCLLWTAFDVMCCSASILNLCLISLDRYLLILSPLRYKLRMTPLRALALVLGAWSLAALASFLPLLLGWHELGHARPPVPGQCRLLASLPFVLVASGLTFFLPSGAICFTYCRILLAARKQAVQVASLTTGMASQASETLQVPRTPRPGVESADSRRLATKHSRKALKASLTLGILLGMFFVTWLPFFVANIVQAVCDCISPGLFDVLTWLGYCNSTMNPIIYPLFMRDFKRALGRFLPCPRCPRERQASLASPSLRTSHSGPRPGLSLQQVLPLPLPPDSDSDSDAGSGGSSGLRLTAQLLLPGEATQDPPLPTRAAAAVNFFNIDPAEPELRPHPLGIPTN
Description: PDSP Primary Binding target: HTR6 - Compounds are tested at 10 uM concentration, plate are incubated at room temperature in the dark for 90 minutes. Reaction are stopped by vacuum filtration onto 0.3% polyethyleneimine soaked filter mats using Filtermate harvester. Scintilation cocktail is then melted onto microwave-dried filters on a hot plate and the radio activity is counted in Microbia counter.
In test [8] the target is Beta-3 adrenergic receptor (Homo sapiens) (UniProt P13945).
Chain of Beta-3 adrenergic receptor (Homo sapiens) (P13945 whole entry, looked up): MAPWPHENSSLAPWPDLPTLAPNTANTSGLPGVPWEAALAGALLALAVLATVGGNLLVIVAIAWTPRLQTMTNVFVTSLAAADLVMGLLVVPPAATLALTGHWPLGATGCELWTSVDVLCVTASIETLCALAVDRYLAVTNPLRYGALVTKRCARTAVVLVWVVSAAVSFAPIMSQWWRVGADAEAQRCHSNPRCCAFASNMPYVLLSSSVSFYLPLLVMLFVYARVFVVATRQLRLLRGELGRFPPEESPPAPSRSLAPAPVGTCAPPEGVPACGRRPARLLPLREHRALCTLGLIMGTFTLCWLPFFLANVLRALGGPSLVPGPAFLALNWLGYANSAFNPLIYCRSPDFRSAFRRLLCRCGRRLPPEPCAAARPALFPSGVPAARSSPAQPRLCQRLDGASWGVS
Description: PDSP Primary Binding target: ADRB3 - Compounds are tested at 10 uM concentration, plate are incubated at room temperature in the dark for 90 minutes. Reaction are stopped by vacuum filtration onto 0.3% polyethyleneimine soaked filter mats using Filtermate harvester. Scintilation cocktail is then melted onto microwave-dried filters on a hot plate and the radio activity is counted in Microbia counter.
Test [9] deals with Sodium-dependent noradrenaline transporter (Homo sapiens) (UniProt P23975).
Chain of Sodium-dependent noradrenaline transporter (Homo sapiens) (P23975 whole entry): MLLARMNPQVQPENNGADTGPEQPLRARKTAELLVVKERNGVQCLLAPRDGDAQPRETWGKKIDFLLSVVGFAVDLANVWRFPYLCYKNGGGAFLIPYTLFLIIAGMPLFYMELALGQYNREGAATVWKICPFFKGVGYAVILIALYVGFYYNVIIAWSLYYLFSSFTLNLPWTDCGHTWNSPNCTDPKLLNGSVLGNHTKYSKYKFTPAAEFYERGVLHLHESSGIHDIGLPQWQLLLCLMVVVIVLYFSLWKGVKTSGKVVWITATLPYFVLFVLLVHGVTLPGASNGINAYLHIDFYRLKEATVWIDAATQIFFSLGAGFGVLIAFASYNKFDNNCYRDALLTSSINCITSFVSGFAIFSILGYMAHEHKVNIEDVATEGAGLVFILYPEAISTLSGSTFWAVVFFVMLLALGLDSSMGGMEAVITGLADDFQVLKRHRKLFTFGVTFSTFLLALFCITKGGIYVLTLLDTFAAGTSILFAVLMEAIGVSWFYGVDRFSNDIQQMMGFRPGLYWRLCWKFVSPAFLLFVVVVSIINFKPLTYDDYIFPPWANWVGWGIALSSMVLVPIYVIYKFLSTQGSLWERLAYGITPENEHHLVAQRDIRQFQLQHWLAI
Description: PDSP Primary Binding target: SLC6A2 - Compounds are tested at 10 uM concentration, plate are incubated at room temperature in the dark for 90 minutes. Reaction are stopped by vacuum filtration onto 0.3% polyethyleneimine soaked filter mats using Filtermate harvester. Scintilation cocktail is then melted onto microwave-dried filters on a hot plate and the radio activity is counted in Microbia counter.
Test [10] has as its target T4, Alpha-2A adrenergic receptor (Homo sapiens) (UniProt P08913).
T4 sequence (whole entry): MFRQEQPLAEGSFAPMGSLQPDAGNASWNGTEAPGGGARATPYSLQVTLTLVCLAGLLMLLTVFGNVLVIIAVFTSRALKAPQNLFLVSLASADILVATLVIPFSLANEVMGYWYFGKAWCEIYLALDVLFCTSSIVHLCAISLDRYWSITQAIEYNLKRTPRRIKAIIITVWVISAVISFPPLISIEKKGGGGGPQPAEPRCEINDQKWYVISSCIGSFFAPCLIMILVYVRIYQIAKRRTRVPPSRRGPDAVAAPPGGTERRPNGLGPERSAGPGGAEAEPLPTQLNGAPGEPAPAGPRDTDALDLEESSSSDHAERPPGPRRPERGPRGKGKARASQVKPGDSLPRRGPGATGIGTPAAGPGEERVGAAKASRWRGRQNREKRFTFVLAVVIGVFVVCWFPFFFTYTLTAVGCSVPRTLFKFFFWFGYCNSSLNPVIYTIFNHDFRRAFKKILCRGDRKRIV
Description: PDSP Primary Binding target: ADRA2A - Compounds are tested at 10 uM concentration, plate are incubated at room temperature in the dark for 90 minutes. Reaction are stopped by vacuum filtration onto 0.3% polyethyleneimine soaked filter mats using Filtermate harvester. Scintilation cocktail is then melted onto microwave-dried filters on a hot plate and the radio activity is counted in Microbia counter.

The target of test [11] is T5, 5-hydroxytryptamine receptor 3A (Homo sapiens) (UniProt P46098).
T5 sequence (whole entry): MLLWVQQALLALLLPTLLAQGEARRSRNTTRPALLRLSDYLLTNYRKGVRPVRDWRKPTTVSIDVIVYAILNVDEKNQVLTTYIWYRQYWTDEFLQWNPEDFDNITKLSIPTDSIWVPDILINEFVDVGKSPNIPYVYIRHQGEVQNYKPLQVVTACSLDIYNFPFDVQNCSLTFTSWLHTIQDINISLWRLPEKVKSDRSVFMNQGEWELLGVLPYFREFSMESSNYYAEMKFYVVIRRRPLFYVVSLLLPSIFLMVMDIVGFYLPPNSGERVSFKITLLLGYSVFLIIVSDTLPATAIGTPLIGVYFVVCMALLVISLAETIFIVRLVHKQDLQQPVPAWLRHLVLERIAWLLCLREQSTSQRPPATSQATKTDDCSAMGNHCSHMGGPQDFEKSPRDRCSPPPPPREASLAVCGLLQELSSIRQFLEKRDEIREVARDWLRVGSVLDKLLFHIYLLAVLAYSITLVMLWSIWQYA
Description: PDSP Primary Binding target: HTR3A - Compounds are tested at 10 uM concentration, plate are incubated at room temperature in the dark for 90 minutes. Reaction are stopped by vacuum filtration onto 0.3% polyethyleneimine soaked filter mats using Filtermate harvester. Scintilation cocktail is then melted onto microwave-dried filters on a hot plate and the radio activity is counted in Microbia counter.

The target in test [12] is 5-hydroxytryptamine receptor 7 (Homo sapiens) (UniProt P34969).
Chain of 5-hydroxytryptamine receptor 7 (Homo sapiens) (P34969 whole entry): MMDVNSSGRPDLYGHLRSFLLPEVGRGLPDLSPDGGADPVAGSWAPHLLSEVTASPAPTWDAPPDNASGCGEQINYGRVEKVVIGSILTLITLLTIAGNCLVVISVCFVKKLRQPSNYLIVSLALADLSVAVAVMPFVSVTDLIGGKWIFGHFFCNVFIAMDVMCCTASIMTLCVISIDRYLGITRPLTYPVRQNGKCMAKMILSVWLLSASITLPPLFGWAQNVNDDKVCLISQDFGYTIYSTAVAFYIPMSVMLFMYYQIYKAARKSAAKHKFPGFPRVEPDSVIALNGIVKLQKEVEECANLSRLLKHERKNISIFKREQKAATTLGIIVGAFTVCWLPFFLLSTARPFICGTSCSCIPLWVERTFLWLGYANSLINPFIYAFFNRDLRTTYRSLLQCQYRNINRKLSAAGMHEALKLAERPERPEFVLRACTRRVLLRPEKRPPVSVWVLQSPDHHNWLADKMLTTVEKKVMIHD
Description: PDSP Primary Binding target: HTR7 - Compounds are tested at 10 uM concentration, plate are incubated at room temperature in the dark for 90 minutes. Reaction are stopped by vacuum filtration onto 0.3% polyethyleneimine soaked filter mats using Filtermate harvester. Scintilation cocktail is then melted onto microwave-dried filters on a hot plate and the radio activity is counted in Microbia counter.

Chain of 5-hydroxytryptamine receptor 1E (Homo sapiens) (P28566 whole entry): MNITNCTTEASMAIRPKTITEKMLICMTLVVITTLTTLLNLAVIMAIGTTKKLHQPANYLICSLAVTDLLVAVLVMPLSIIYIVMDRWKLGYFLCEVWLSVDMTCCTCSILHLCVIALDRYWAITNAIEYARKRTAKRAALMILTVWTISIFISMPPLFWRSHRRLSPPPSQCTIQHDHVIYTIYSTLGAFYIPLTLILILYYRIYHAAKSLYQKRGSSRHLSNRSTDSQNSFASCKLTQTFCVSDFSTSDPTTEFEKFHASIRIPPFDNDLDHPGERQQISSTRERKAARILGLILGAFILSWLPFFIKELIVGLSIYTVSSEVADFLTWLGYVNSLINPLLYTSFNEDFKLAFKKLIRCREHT

Take `O=c1ccn([C@@H]2O[C@H](COP(=O)(O)OP(=O)(O)O)[C@@H](O)[C@H]2O)c(=O)[nH]1`: the inhibition (commonly the drop in the measured response relative to a control, in per cent) in [1] is -9.39%; in test [2], 3.57%; in test [3], -6.92%; in test [4], 9.09%; in test [5], 21.1%; in test [6] it was 2.62%. The figures for the inhibition in test [7], in test [8] and in [9] were 6.18%, 15.3% and 13.7%, respectively.
Take `Cc1csc2c(N[C@@H](C)CN3CCN(S(=O)(=O)c4ccc(Cl)c(Cl)c4)CC3)ncnc12`: the inhibition was -7.08% in [1]; -5.96% in test [3]; -3.07% in test [4]; 44.9% in test [5]; 73.2% in test [6]; 12.8% in [7]. The inhibition in [8] was 60.6%; in test [9] it was -2.51%; in test [10] it was -8.93%.
As for `COc1ccc(OC(F)(F)F)cc1CN[C@H]1CCCN[C@H]1c1ccccc1`, the inhibition in test [2] is 58.5%; in test [3], 31.1%; in test [4], 12.4%; in [5], 38.8%; in test [6], 90.5%; in test [7] it was 23.8%. Also, the inhibition in test [8] was 6.31%; in test [9], 22.6%; in test [10], 38.4%; in test [11] it was 13.1%.
In the case of `N#Cc1cccc(C(=O)Nc2cc(-c3ccccc3)nn2-c2ccccc2)c1`, the inhibition was 2.45% in test [1]; 7.87% in [2]; 4.85% in [3]; 3.88% in test [4]; 6.36% in test [5]; -8.91% in [6]. Also, the figures for the inhibition in [7], in [8] and in [10] were 6.69%, -5.54% and -0.39%, respectively.
`CC(C)NCC(O)c1ccc(N)c(C#N)c1` (stereo unspecified): the inhibition was -0.9% in test [1]; 20.1% in test [12]; -7.04% in [2]; -0.15% in test [3]; 32.7% in test [4]; 29.6% in test [6]. Besides, the inhibition in test [7] is 18%; in test [8], 59.9%; in test [9] it was 4.01%; in test [10] it was -5.25%.
Consider `CCCSc1nc(N[C@@H]2C[C@H]2c2ccc(F)c(F)c2)c2nnn([C@@H]3C[C@H](OCCO)[C@@H](O)[C@H]3O)c2n1`, for which the inhibition in test [1] was 10.8%; in [12] it was 16.8%; in [2], -3.61%; in test [3] it was 11.7%; in test [4] it was 3.9%; in test [6] it was 63.6%. The inhibition in test [7] was 7.72%; in test [8] it was 49.7%; in test [11], 4.33%.
In the case of `CCCCCNC(=O)NS(=O)(=O)c1cc([N+](=O)[O-])ccc1NC1CCCCC1`, the inhibition in [2] was 11.4%; in test [3] it was -4%; in test [4], 16.8%; in [5], 85.4%; in [6], 3.25%; in test [7] it was 12.8%. The inhibition in [8] is 39.7%; in test [9], 83.9%; in [11], -7.62%.
For the compound `CCCCN(CC)c1nc(C)nc2c1c(C)cn2-c1c(C)cc(C)cc1C`, the inhibition was -7.17% in test [2]; 18.2% in test [3]; 18.4% in test [4]; 2.76% in [5]; 78.3% in test [6]; 41.7% in test [8]. For the same compound, the inhibition is -0.04% in [9], 4.06% in [10] and -1.19% in test [11].
`COc1ccccc1CN[C@H]1C2CCN(CC2)[C@H]1C(c1ccccc1)c1ccccc1`: the inhibition is 56.2% in test [1]; -6.37% in test [12]; -3.39% in test [2]; -7.95% in [3]; 5% in test [4]; 62.5% in test [6]. The inhibition was 8.17% in test [7], -1.7% in test [8], 11.1% in [10] and 13.6% in test [11].
Consider `C[C@H](NC[C@H](O)CP(=O)(O)CC1CCCCC1)c1ccc(Cl)c(Cl)c1`, for which the inhibition in [1] was 16.6%; in test [3], 1.74%; in [4], -8.21%; in [5], -2.56%; in test [6] it was 26.7%; in test [7], 2.61%. In addition, the inhibition in test [8] was 38.3%; in test [11], 6.3%.
On to `CN(C(=O)Cc1ccc(Cl)c(Cl)c1)C(CN1CCCC1)c1cccc(OCC(=O)O)c1` (stereo unspecified), for which the inhibition in test [1] was 59.6%; in test [12] it was -9.81%; in [3], -0.83%; in [4], -3.71%; in test [6] it was 21.9%; in test [7] it was 0.97%. The values for the inhibition in [8], in test [10] and in [11] were -9.83%, 12.2% and 7.24%, respectively.
`Nc1nc2c(c(N3CCNCC3)n1)CCC1=C2[C@@H]2CCCC[C@@H]2O1`: the inhibition was -3.04% in [1]; 17.8% in test [12]; 7.29% in test [2]; -7.78% in test [3]; 34.5% in test [4]; 36.6% in test [6]. The inhibition is 17.3% in [7], 14.4% in test [8], 4.22% in [10] and 98.1% in [11].
